Data as given in US6890920B2, “Quaternary ammonium compounds” (Pharmacia & Upjohn Company, priority 1992, dated 2005).
Like-named read-outs stand apart in the source and are kept apart here.

How the values were obtained:
muscarinic receptor M3 = molecular target: T1, muscarinic receptor M3 (Homo sapiens, UniProt P20309); experiment: Muscarinic receptor subtype M3 binding assay, radioligand displacement; conditions: [3]H-methylscopolamine displacement, membranes from recombinant mammalian cell lines; read-out: Ki values, receptor subtype M3
T1 construct: expressed in transfected cells
Method: (§1) Muscarinic receptor subtype M1-M5 binding assays were carried out. Briefly, [3]H-methylscopolamine was allowed to bind to membranes from various recombinant mammalian cell lines, each with an over-expression of a particular receptor subtype.
(§2) Muscarinic receptor subtype M1-M5 binding assays were performed.

muscarinic receptor M1 = molecular target: T2, muscarinic receptor M1 (Homo sapiens, UniProt P11229); experiment: Muscarinic receptor subtype M1 binding assay, radioligand displacement
T2 construct: expressed in transfected cells
T2 sequence (P11229 1-460): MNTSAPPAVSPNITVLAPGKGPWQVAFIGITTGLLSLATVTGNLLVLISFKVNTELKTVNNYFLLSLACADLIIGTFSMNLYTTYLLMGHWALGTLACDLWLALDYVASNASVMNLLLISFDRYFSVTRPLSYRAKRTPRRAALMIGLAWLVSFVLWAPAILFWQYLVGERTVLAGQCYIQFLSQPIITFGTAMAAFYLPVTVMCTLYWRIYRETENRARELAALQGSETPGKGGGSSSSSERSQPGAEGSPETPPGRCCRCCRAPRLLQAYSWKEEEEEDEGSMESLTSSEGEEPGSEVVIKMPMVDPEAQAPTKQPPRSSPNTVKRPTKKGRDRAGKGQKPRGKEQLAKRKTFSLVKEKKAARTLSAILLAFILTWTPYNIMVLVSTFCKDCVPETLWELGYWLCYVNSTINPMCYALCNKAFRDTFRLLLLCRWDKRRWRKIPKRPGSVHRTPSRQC
Method: as §1, §2

[1] = test system: methacholine-induced bronchoconstriction in Balb/c mice; experiment: Bronchodilatory effect of inhaled compounds, Example VIII (% inhibition); type: in vivo; conditions: inhalation of 1 mg/mL FBE; for % inhibition of bronchoconstriction after 10 min: 10 min after dosing; for % inhibition of bronchoconstriction after 36 h: 36 h after dosing
Description: Bronchoconstriction was induced in BALB/c mice by administration of methacholine.

muscarinic receptor M4 = molecular target: T3, muscarinic receptor M4 (Homo sapiens, UniProt P08173); experiment: Muscarinic receptor subtype M4 binding assay, radioligand displacement; conditions: [3]H-methylscopolamine displacement, membranes from recombinant mammalian cell lines
T3 construct: expressed in transfected cells
T3 sequence (P08173 1-479): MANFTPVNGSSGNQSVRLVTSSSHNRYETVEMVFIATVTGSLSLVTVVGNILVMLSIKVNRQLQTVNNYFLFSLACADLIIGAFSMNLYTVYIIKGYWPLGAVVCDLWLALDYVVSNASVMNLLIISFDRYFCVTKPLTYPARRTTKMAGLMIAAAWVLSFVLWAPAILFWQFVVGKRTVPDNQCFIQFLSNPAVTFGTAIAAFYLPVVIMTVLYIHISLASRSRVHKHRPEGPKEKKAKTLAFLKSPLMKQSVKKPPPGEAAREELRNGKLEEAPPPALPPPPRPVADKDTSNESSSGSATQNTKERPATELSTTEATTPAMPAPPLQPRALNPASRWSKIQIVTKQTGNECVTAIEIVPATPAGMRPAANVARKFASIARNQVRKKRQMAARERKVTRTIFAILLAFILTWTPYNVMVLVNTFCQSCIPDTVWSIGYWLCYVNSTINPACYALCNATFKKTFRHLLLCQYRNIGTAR
Method: as §1, §2

muscarinic receptor M5 = molecular target: T4, muscarinic receptor M5 (Homo sapiens, UniProt P08912); experiment: Muscarinic receptor subtype M5 binding assay, radioligand displacement; conditions: [3]H-methylscopolamine displacement, membranes from recombinant mammalian cell lines; read-out: Ki values, receptor subtype M5
T4 construct: expressed in transfected cells
T4 sequence (P08912 1-532): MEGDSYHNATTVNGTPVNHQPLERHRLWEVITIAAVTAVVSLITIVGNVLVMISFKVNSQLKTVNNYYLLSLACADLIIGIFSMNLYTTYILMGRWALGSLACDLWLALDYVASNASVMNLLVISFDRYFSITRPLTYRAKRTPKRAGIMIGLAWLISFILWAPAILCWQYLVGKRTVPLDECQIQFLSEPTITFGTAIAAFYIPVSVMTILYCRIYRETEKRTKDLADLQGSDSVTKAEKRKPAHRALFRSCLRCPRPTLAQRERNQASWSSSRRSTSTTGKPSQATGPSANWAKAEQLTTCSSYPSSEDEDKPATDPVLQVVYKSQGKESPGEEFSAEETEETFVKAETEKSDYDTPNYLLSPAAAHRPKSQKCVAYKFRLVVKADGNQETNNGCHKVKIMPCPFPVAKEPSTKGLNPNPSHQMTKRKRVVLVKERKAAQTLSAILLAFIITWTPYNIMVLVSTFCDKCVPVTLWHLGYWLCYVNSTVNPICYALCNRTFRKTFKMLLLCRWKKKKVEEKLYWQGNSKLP
Method: as §1, §2

muscarinic receptor M2 = molecular target: T5, muscarinic receptor M2 (Homo sapiens, UniProt P08172); experiment: Muscarinic receptor subtype M2 binding assay, radioligand displacement; conditions: [3]H-methylscopolamine displacement, membranes from recombinant mammalian cell lines
T5 construct: expressed in transfected cells
T5 sequence (P08172 1-466): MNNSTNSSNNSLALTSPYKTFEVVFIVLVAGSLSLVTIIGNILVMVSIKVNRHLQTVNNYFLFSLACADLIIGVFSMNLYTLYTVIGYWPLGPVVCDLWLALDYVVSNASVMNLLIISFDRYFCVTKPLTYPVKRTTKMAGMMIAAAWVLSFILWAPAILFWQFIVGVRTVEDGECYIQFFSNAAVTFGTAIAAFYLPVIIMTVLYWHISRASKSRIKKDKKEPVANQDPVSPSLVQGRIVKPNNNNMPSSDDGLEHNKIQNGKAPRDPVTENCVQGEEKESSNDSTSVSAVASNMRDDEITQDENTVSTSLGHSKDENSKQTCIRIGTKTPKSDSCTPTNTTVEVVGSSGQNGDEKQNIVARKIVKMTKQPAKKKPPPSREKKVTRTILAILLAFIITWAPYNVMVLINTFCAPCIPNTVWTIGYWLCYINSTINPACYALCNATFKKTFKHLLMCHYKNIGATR
Method: as §1, §2

[2] = Pharmacokinetics of inhaled tolterodine, plasma levels; type: in vivo, Balb/c mice; conditions: FIG. 7
Method: Blood samples were collected at 2.5 minutes, 15 minutes, 30 minutes, 1 hour or 2 hours after aerosol drug treatment. Blood samples were prepared as in example VI. Samples were analyzed using a PE SCIEX API 3000 mass spectrometer. Chromatographically, the analyte and the internal standard were resolved on a Zorbax ACE Phenyl column using a gradient elution. The limit of quantitation was 100 pg/mL.

[3] = [3]H-methylscopolamine displacement, membranes from recombinant mammalian cell lines

T1 sequence (P20309 whole entry): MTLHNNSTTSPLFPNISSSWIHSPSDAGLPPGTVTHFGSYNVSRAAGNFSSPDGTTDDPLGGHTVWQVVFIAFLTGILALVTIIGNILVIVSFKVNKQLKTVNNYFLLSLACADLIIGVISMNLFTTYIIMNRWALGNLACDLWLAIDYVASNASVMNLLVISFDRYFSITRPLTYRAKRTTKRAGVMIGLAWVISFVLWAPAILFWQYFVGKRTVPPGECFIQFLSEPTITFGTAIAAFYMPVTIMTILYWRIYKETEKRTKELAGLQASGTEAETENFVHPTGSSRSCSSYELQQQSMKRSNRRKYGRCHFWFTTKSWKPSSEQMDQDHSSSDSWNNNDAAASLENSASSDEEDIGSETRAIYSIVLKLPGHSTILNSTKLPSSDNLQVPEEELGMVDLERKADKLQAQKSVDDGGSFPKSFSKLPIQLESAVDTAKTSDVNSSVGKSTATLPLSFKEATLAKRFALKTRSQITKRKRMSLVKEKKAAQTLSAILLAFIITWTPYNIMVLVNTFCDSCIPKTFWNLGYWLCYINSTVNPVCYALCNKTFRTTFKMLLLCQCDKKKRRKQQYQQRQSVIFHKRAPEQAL

Structure (SMILES) | Ki (muscarinic receptor M3) | Ki (muscarinic receptor M1; [3]) | melting point | % inhibition of bronchoconstriction after 10 min [1] | % inhibition of bronchoconstriction after 36 h [1] | Ki (muscarinic receptor M4) | Ki (muscarinic receptor M5) | Ki (muscarinic receptor M2) | Ki (muscarinic receptor M1) | Plasma levels ([2]; inhalation of nebulized solution at 0.1 mg/ml, limit of quantitation 100 pg/mL) | absorption into the circulation ([2]; inhalation of nebulized solutions at 0.1, 0.5 or 1.0 mg/ml) | % inhibition of bronchoconstriction after 24 h ([1]; 24 h after dosing) | % inhibition of bronchoconstriction after 48 h ([1]; 48 h after dosing)
Cc1ccc(O)c([C@H](CC[N+](C)(C(C)C)C(C)C)c2ccccc2)c1.[Br-] [Example 3] | 0.43 nM | 0.3 nM | 189 to 191 °C (dec.) | 100% | 93% | 0.72 nM | 0.26 nM | 0.52 nM |  |  |  |  | 
Cc1ccc(O)c(C(CC[N+]2(C)CCCC2)c2ccccc2)c1.[I-] (centres unmarked) [Example 31, 1-[3-(2-Hydroxy-5-Methylphenyl)-3-phenylpropyl]-1-methylpyrrolidinium iodide] | 3.3 nM | 1.2 nM |  | 100% | 0% | 4.2 nM | 1.6 nM | 2.2 nM |  |  |  |  | 
CC(C)N(CC[C@H](c1ccccc1)c1cc(CO)ccc1O)C(C)C [Hydroxytolterodine, 2-[(1R)-3-(diisopropylamino)-1-phenylpropyl]-4-(hydroxymethyl)phenol, reference compound] | 1.4 nM | 1.5 nM |  |  |  | 1.4 nM | 0.48 nM | 0.33 nM |  |  |  |  | 
CC[N+]1(CCC(c2ccccc2)c2cc(C)ccc2O)CCCC1.[I-] (centres unmarked) [Example 32, 1-Ethyl-1-(3-(2-hydroxy-5-methylphenyl)-3-phenylpropyl]pyrrolidinium iodide] | 3.1 nM | 1.1 nM |  | 100% | 17% | 3.8 nM | 1.2 nM | 1.7 nM |  |  |  |  | 
COc1ccc(C)cc1[C@H](CC[N+](C)(C(C)C)C(C)C)c1ccccc1.[I-] [Example 20, (3R)-N,N-diisopropyl-3-(2-methoxy-5-methylphenyl)-N-methyl-3-phenylpropan-1-aminium iodide] |  |  | 211 °C (dec.) |  |  |  |  |  |  |  |  |  | 
Cc1ccc(O)c([C@H](CCN(C(C)C)C(C)C)c2ccccc2)c1 [Tolterodine, 2-[(1R)-3-(diisopropylamino)-1-phenylpropyl]-4-methylphenol, reference compound] |  |  |  |  |  | 1.5 nM | 0.55 nM |  | 0.87 nM | at or below detection limits | rapidly absorbed into the circulation |  | 
CC(C)[N+](C)(CC[C@H](c1ccccc1)c1cc(CO)ccc1O)C(C)C.[I-] [Example 8, (3R)-3-[2-Hydroxy-5-(hydroxymethyl)phenyl]-N,N-diisopropyl-N-methyl-3-phenylpropan-1-aminium iodide] | 0.92 nM | 0.86 nM |  | 82% |  | 1.07 nM | 0.68 nM | 1.08 nM |  |  |  | 60% | 15%
Cc1ccc(O)c(C(CC[N+]2(C)CCCCC2)c2ccccc2)c1.[I-] (centres unmarked) [Example 33, 1-[3-(2-Hydroxy-5-methylphenyl)-3-phenylpropyl]-1-methylpiperidinium iodide] | 3.2 nM | 1.1 nM |  | 100% | 0% | 3.6 nM | 0.9 nM | 1.7 nM |  |  |  |  | 
CCCC(=O)Oc1ccc(C)cc1[C@H](CC[N+](C)(C(C)C)C(C)C)c1ccccc1.[I-] [Example 21, (3R)-3-[2-(Butyryloxy)-5-methylphenyl]-N,N-diisopropyl-N-methyl-3-phenylpropan-1-aminium iodide] |  |  | 175 °C (dec.) |  |  |  |  |  |  |  |  |  | 
Cc1ccc(O)c(C(CC[N+]2(C)CCCCCC2)c2ccccc2)c1.[I-] (centres unmarked) [Example 34, 1-[3-(2-Hydroxy-5-methylphenyl)-3-phenylpropyl]-1-methylazepanium iodide] | 4.7 nM | 1 nM |  | 100% | 0% | 2.9 nM | 1.8 nM | 1 nM |  |  |  |  | 
